Test [1] has as its system TNBS induced inflammatory bowel disease. In words: TNBS induced inflammatory bowel disease. It is filed as in vivo, Female Balb/C mice. The conditions noted are these: for transient loss in body weight: one day after TNBS instillation; for mortality: untreated 60%. As for the experimental part:
Female Balb/C mice (average body weight 20 g, Harlan, Israel) were lightly sedated and challenged rectally, by instillation with 70 μl of 2.5% TNBS (Sigma) dissolved in 50% ethanol, to induce intestinal inflammation and colitis. Animals were weighted before the beginning of the study and treatment was administered i.p. on a daily basis for six days at 20 mg/kg and volume dosage of 5 ml/kg. During the study period of up to 7 days, the following parameters were daily monitored and recorded: body weight, presence of blood in the stool and stool consistency. These findings are scored according to Table 6 [Murthy S.N. et al., Dig. Dis. Sci. 38:1722-34, 1993].
On the last day of the study, animals were euthanized. Abdomen was open and the colon was sectioned at the level of the caecum and the rectum. The colon was weighted and its length was measured. The whole column was excised, slited longitudinally, and examined under a magnifying lens. Any visible damage was recorded and scored for gross pathology according to Wong [Wong et al., J. Pharm. Exp. Ther. 274: 475-80, 1995]. Namely, a score of 0 indicates no damage, 1 indicates localized hyperemia and/or edema, 2 indicates at least two sites of hyperemia and/or edema, 3 indicates localized erosion, 4 indicates localized ulcer and 5 indicates either an erosion site or ulcer extending for more than 2 cm along the colon or at least two sites of erosion or ulcer. Finally, the entire colon was fixed in 4% formaldehyde for histopathological evaluation.
Each treatment group comprised at least seven animals. The following groups served as negative controls: naïve animals, sham animals that received 70 μl of 50% ethanol without TNBS, and TNBS challenged untreated and vehicle treated animals. A group of animals receiving 10 mg/kg sulfasalazine served as positive controls. Sulfasalazine is a standard anti-inflammatory drug used for the treatment of mild to moderate ulcerative colitis and Crohn's disease, and as adjunctive therapy in the treatment of severe ulcerative colitis. This drug is also used for the treatment of non-IBD related disorders, such as rheumatoid arthritis and ankylosing spondylitis. The recognized side effect of this medicament is its hepatotoxicity upon chronic treatment.

In another test the test system is IL-1β. In words: Gene expression in LPS activated RAW 264.7 macrophages, IL-1β. The conditions noted are these: RAW 264.7, 10 μM, LPS 1 μg/ml, RNA 3 hrs after activation, vs vehicle treated activated cells. It is filed as cell-based, mouse. As for the experimental part:
(§1) RAW 264.7 macrophages, a mouse cell line (ATCC # TIB 71), were grown in Dulbecco's modified Eagle's medium (DMEM) with 4 mM L-glutamine adjusted to contain 1.5 g/L sodium bicarbonate, 4.5 g/L glucose, and 10% heat inactivated fetal bovine serum. Cells were grown in tissue culture flasks and seeded at appropriate density into 6 wells tissue culture plates. Four million Raw cells in half a milliliter were stimulated with 1 μg/ml LPS E. coli 055:B5 (DIFCO Laboratories). The mouse macrophages were pre-treated for one hour with controls or 10 μM of test compounds, and later on activated with LPS. RNA samples were extracted from the cells 3 hrs after activation and gene expression levels were analyzed by real-time RT-PCR. In parallel, supernatants were collected and secretion of inflammatory mediators was analyzed using ELISA techniques according to the instructions of the kit manufacturer.
(§2) Total RNA is prepared using SV total RNA isolation system (Promega). The cells were homogenized in lysis buffer. The lysates were transferred to an RNA isolation column, treated with DNAse, washed and eluted according to kit instructions. RNA concentrations were determined using GeneQuant II (Pharmacia-Amersham). Complementary DNA (cDNA) was synthesized from total RNA using […] II reverse transcriptase (Life Technologies). 2 μg of total RNA were combined with an oligo (dT)15 primer, 0.5 mM dNTP mix, 8 units of reverse transcriptase and other reaction components up to a final volume of 20 μl, according to the kit instructions. The reaction mixture was incubated at 42° C. for 45 min and inactivated at 70° C. for 15 minutes. Quantitative real-time RT-PCR included 1 μl of the cDNA, 300 nM of the appropriate forward and reverse primers (according to the gene monitored) and 7.5 μl of the reaction mix containing buffer, nucleotides, Taq polymerase and SYBER green (SYBER Green master mix, Applied Biosystems), in a total reaction volume of 15 μl. Gene amplification was obtained using the GeneAmp 5700 sequence detection system (Applied Biosystems). Amplification included one stage of 10 minutes at 95° C. followed by 40 cycles of a 2-steps loop: 20 seconds at 95° C., and 1 minute at 60° C. During each annealing step, the amount of the amplified product was measured by the fluorescence of the double strand DNA binding dye, SYBER Green. The cycle of threshold (CT), representing the PCR cycle at which an increase in fluorescence above a baseline signal can be first detected, was determined for each product. A delay of one PCR cycle in the CT is translated into a two-fold decrease in starting template molecules and vice versa. The changes in the CT of the specific gene product were normalized to the changes in the CT of housekeeping cyclophilin or GAPDH as reference genes. Results were expressed as fold increase of gene expression in treated or untreated activated cells above the resting cells, after normalization to cyclophilin or GAPDH. Cells were also tested for viability to confirm that any effect on gene expression was indeed due to modulation of transcription of a specific target and not to cytoxicity.
(§3) Results were further expressed as percent inhibition of gene expression in compound treated activated cells over vehicle “treated” activated cells. Since the modulation of IL-10 and TNF-α gene expression by the compounds of the invention is relatively minor, it is not reported. […] Inhibition above 50% was considered significant.

The next test deals with MCP-1. The test can be described thus: Gene expression in LPS activated RAW 264.7 macrophages, MCP-1. It is filed as cell-based, mouse. The conditions noted are these: RAW 264.7, 10 μM, LPS 1 μg/ml, RNA 3 hrs after activation, vs vehicle treated activated cells. The method, then:
as §1, §2, §3

The test system of the next test is iNOS. The test can be described thus: Gene expression in LPS activated RAW 264.7 macrophages, iNOS. It is filed as cell-based, mouse. The conditions noted are these: RAW 264.7, 10 μM, LPS 1 μg/ml, RNA 3 hrs after activation, vs vehicle treated activated cells. As for the experimental part:
as §1, §2, §3

The subject of test [2] is carrageenan induced inflammatory pain and paw edema. In words: Inflammatory pain and paw edema induced by carrageenan. The following applies: Rattus norvegicus, ip, 3 hours; for inhibition in vivo at 10 mg/kg: 10 mg/kg i.p. It is filed as in vivo, Male Sprague Dawley rats. The essentials:
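Male Sprague Dawley rats (~200 g) received 0.1 ml 2% λ-carrageenan subplantar in the right paw; compounds given i.p. at 3, 10 or 20 mg/kg (some p.o.) immediately after. Thermal (Hargreaves) latency, mechanical threshold, paw thickness and volume measured at 0 and 3 h; values are inter-paw differences ([…], ΔForce), volume as % of vehicle.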

Test [3] has as its system visceral pain writhing responses. The test can be described thus: Visceral pain, acetic acid induced writhing responses. It is filed as in vivo, Male ICR mice. The following applies: Mus musculus, iv, single dose 2 mg/kg i.v., compared to untreated group; read-out: Percent Inhibition of Visceral Pain Writhing Responses. In general terms: An intraperitoneal irritant provokes the stretching counted in writhing tests.

The next test concerns COX-2. In words: Gene expression in LPS activated RAW 264.7 macrophages, COX-2. It is filed as cell-based, mouse. The conditions noted are these: RAW 264.7, 10 μM, LPS 1 μg/ml, RNA 3 hrs after activation, vs vehicle treated activated cells. As for the experimental part: as §1, §2, §3
A further test addresses T1, Human CB2 Receptor (Homo sapiens, UniProt P34972).
T1 construct: host or cells: Sf9 or HEK-293 cells (membranes)
The test can be described thus: [35S]GTPγS-binding assay, hCB2. It is filed as biochemical. The conditions noted are these: GTPγS, Human CB2 Receptor; NB = no binding. As for the experimental part: (§4) Functional activity of compounds of the invention toward the cannabinoid receptors was determined by stimulation of [^35S]-GTPγS binding using membranes from HEK-293 cells expressing the hCB1 receptor and membranes expressing the hCB2 receptor derived from either Sf9 (PerkinElmer) or from HEK-293 cells. Activities were compared to that of the known cannabinoid full agonist CP55940 (Alexis). The purpose of this experiment is to determine the potency of the compounds of the invention as agonists or antagonists toward each of the receptor tested.
(§5) [^35S]-GTPγS binding reactions were performed at 30° C. in 96-well plates containing 5-10 μg membrane protein suspended in 0.1 ml binding buffer [20 mM HEPES-NaOH, pH 7.4, 5 mM MgCl2, 100 mM NaCl, 0.2% (w/v) bovine serum albumin] supplemented with 50 μM GDP and 0.06 nM-10 μM of the compound being tested. Binding was initiated by the addition of [^35S]GTPγS (0.3 nM final concentration). Incubations were performed for 90 minutes and were terminated by filtration on GF/C filter plates (PerkinEimer). Filters were washed ten times with ice-cold wash buffer (20 mM HEPES-NaOH, pH 7.4, 10 mM sodium pyrophosphate). Non-specific binding was measured in the presence of 15 μM GTPγS.
(§6) Assays were performed in duplicates. Data was analyzed by plotting on the X axis the log concentration against percent of specific [^35S]GTPγS binding out of basal [^35S]GTPγS binding on the Y axis, non-linear regression is then performed using GraphPad Prism, version 3.0 (GraphPad, San Diego, Calif.) to calculate the EC50 and Emax of the compound. The EC50 value represents the concentration at which there is 50% [^35S]GTPγS binding and the Emax value the upper plateau of the curve.
(GTPγS resists hydrolysis and so accumulates on activated G proteins.)

Another test addresses T2, Human CB1 Receptor (Homo sapiens, UniProt P21554).
T2 construct: expressed in transfected cells; host or cells: HEK-293 cells (membranes)
In words: [35S]GTPγS-binding assay, hCB1. The conditions noted are these: NB = no binding. It is filed as biochemical. The method, then: as §4, §5, §6

Setting [4] is: mechanical stimulus, read-out: Percent Inhibition of Inflammatory Pain Responses, ΔForce.
Where [5] appears, read: thermal stimulus, read-out: Percent Inhibition of Inflammatory Pain Responses, ΔLT.

Like-named read-outs stand apart in the source and are kept apart here.

T2 sequence (P21554 whole entry): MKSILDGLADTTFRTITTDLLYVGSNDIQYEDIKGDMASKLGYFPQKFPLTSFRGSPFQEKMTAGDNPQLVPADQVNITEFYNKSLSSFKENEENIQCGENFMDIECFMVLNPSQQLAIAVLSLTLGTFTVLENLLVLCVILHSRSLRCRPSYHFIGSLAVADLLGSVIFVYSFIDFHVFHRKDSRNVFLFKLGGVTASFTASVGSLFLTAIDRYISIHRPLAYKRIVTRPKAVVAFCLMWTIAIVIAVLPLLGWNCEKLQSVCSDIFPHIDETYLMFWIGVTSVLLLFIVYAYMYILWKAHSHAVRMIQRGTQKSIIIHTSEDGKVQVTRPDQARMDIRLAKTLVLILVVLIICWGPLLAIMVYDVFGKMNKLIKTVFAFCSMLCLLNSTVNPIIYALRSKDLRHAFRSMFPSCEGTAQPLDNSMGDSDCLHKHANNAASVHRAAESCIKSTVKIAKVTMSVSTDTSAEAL
T1 sequence (P34972 whole entry): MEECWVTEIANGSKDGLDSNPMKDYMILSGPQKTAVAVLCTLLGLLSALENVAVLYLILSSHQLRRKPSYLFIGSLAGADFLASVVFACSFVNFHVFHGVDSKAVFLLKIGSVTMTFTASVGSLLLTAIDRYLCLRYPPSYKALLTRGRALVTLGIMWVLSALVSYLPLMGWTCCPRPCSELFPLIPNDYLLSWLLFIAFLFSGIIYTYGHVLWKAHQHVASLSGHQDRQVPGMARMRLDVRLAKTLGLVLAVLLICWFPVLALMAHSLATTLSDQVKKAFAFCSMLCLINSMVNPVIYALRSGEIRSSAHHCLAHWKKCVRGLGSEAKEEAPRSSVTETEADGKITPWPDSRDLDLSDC

For `O=C(O)c1cc(/N=N/c2ccc(S(=O)(=O)Nc3ccccn3)cc2)ccc1O` [sulfasalazine, reference compound], in [1] (10 mg/kg), the “regained normal weight on” value is 6 days, the “transient loss in body weight” value turned out to be 10% and the mortality stood at 0%.
With `CCCCCCC(C)(C)c1cc(O)c2c(c1)OC1CCCCC21` (stereo not shown) [Compound C6S-1, 3-(1,1-Dimethylheptyl)-5a,6,7,8,9,9a-hexahydro-dibenzofuran-1-ol], the “Percent inhibition of gene expression, IL-1β” value (“Percent inhibition … IL-1β” for short) in the test with IL-1β was “NO (NO indicates that the compound tested did not significantly affect the transcription of the gene assessed and that its activity is comparable to vehicle, within ±20% from this control)”. In addition, the “Percent inhibition of gene expression, MCP-1” value (shortened to “Percent inhibition … MCP-1”) with MCP-1 stood at 66%. Besides, the “Percent inhibition of gene expression, iNOS” value (“Percent inhibition … iNOS” below) in the test with iNOS was “NO (NO indicates that the compound tested did not significantly affect the transcription of the gene assessed and that its activity is comparable to vehicle, within ±20% from this control)”. Further, the inhibition in vivo at 20 mg/kg in test [2] (20 mg/kg i.p. (two asterisks), reduction in paw swelling, read-out: Percent Inhibition of Inflammatory Pain Responses, Edema) is 48%. Also, the inhibition in vivo at 2 mg/kg in test [3] was found to be 39%.
Consider `CCCCC(C)(C)c1cc(O)c2c(c1)OC1CC(C)(C)CCC21` (stereo not shown) [Compound C6S-6, 3-(1,1-dimethylpentyl)-7,7-dimethyl-5a,6,7,8,9,9a-hexahydro-dibenzofuran-1-ol], for which, in the test with IL-1β, the “Percent inhibition … IL-1β” value was found to be 37%. Moreover, the “Percent inhibition … MCP-1” value in the test with MCP-1 was “NO (NO indicates that the compound tested did not significantly affect the transcription of the gene assessed and that its activity is comparable to vehicle, within ±20% from this control)”. Further, in the test on iNOS, the “Percent inhibition … iNOS” value was “NO (NO indicates that the compound tested did not significantly affect the transcription of the gene assessed and that its activity is comparable to vehicle, within ±20% from this control)”. In addition, in the test on COX-2, the “Percent inhibition of gene expression, COX-2” value is “NO (NO indicates that the compound tested did not significantly affect the transcription of the gene assessed and that its activity is comparable to vehicle, within ±20% from this control)”. The inhibition in vivo at 2 mg/kg in test [3] was 38%.
As to `CCCCC(C)(C)c1cc(OCC(=O)O)c2c(c1)OC1CCCCC21` (stereo not shown) [Compound C6S-9, [3-(1,1-Dimethylpentyl)-5a,6,7,8,9,9a-hexahydro-dibenzofuran-1-yloxy]-acetic acid], in [1] (20 mg/kg i.p. daily), the “transient loss in body weight” value is recorded as “behaved as the sulfasalazin treated group” and the mortality worked out at 0%. For the same compound, in test [2] (setting [4]), the inhibition in vivo at 10 mg/kg turned out to be 14%. Moreover, in test [2] (setting [5]), the inhibition in vivo at 10 mg/kg turned out to be 53%.
With `CCCCC(C)(C)c1cc(OC(=O)C=CC(=O)O)c2c3c(oc2c1)CCCC3` [Compound C6M-8, But-2-enedioic acid mono-[3-(1,1-dimethylpentyl)-6,7,8,9-tetrahydro-dibenzofuran-1-yl]ester], the “Percent inhibition … IL-1β” value in the test on IL-1β turned out to be 51%. Further, the EC50 at Human CB2 Receptor is above 10000 nM; at Human CB1 Receptor it was 0.25 nM. Further, at Human CB1 Receptor (upper plateau of curve), the Emax is -25%. In addition, the “Percent inhibition … MCP-1” value in the test with MCP-1 is on record as 85%. Further, the “Percent inhibition … iNOS” value in the test with iNOS stood at 66%. The inhibition in vivo at 10 mg/kg in test [2] (setting [4]) came out at 20%; in test [2] (setting [5]) it was 45%.

As a reminder, the mortality is the share of the test organisms that died. Lower therefore signals a weak lethal effect. What is called EC50 is the concentration at which the effect is half-maximal. Read a high EC50 as a need for much substance. For orientation: Emax means the maximal effect, on the per cent scale that the assay sets.

For the origin of these results see patent publication US20090054376A1, “BENZOFURAN DERIVATIVES WITH THERAPEUTIC ACTIVITIES” (Pharmos Corporation, priority 2005, published 2009).
